Results from PubChem BioAssay (NCI).
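Following 48 hours of exposure in 96-well plates, responses at five concentrations were used to interpolate endpoints linearly. Here, GI50 denotes the concentration required for 50% inhibition of growth. TGI denotes the concentration required for complete inhibition of growth.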

Tests used:
Assay in all cases: NCI-60 cell line screen, 48 h
[1] = test system: UACC-62 melanoma
[2] = test system: NCI-H460 lung
[3] = test system: HT29 colon
[4] = test system: NCI-H522 lung
[5] = test system: SK-MEL-5 melanoma
[6] = test system: MDA-MB-231 breast
[7] = test system: MOLT-4 leukemia
[8] = test system: SK-MEL-2 melanoma
[9] = test system: OVCAR-4 ovarian
[10] = test system: IGROV1 ovarian

| Compound | GI50 [1] | TGI [1] | GI50 [2] | TGI [2] | GI50 [3] | TGI [3] | GI50 [4] | TGI [4] | GI50 [5] | TGI [5] | GI50 [6] | TGI [6] | GI50 [7] | TGI [7] | GI50 [8] | TGI [8] | TGI [9] | TGI [10] | GI50 [9] | GI50 [10] |
| --- | --- | --- | --- | --- | --- | --- | --- | --- | --- | --- | --- | --- | --- | --- | --- | --- | --- | --- | --- | --- |
| COc1cccc(/C=C/C(=O)c2ccc(SC)cc2)c1OC | 10.8 µM | 23.8 µM | 17.9 µM | 36.2 µM | 9970 nM | 48.8 µM | 19.2 µM | 38.9 µM | 16.4 µM | 30.3 µM | 17.3 µM | 36.4 µM | 8.11 µM | 61.6 µM | 23.3 µM | 40.7 µM | – | – | – | – |
| O=C(/C=C\c1cccc2ccccc12)c1ccc(F)cc1 | – | 27.5 µM | – | 33.2 µM | – | 36.6 µM | – | 40.2 µM | – | 33 µM | – | – | – | 74.2 µM | – | – | 36.9 µM | 29.4 µM | – | – |
| CCCCCOCC(O)CO (configuration not stated) | – | > 100 µM | – | > 100 µM | – | – | – | – | – | > 100 µM | – | – | – | – | – | > 100 µM | > 100 µM | > 100 µM | – | – |
| Cc1ccc(-c2nc3ccccc3c(=O)n2NCC2(O)OCC(O)C(O)C2O)cc1 (configuration not stated) | – | > 100 µM | – | > 100 µM | – | > 100 µM | – | > 100 µM | – | > 100 µM | – | – | – | > 100 µM | – | > 100 µM | > 100 µM | – | – | – |
| Cc1cccc(-n2c(N)c(-c3nc4ccccc4[nH]3)sc2=S)c1 | – | 78.1 µM | – | – | – | 56.6 µM | – | 75.7 µM | – | 46.7 µM | – | – | – | 54.6 µM | – | 62.3 µM | > 100 µM | 78 µM | – | – |
| COc1cc(Oc2c(C)c(Cl)c(OC)c(Cl)c2OC)c2c(c1Cl)COC2=O | – | > 100 µM | – | > 100 µM | – | > 100 µM | – | 33.7 µM | – | 49.2 µM | – | > 100 µM | – | 69.1 µM | – | – | > 100 µM | > 100 µM | – | – |
| COc1ccc(/C=C2\CN(C(=O)C(Cl)Cl)C/C(=C\c3ccc(OC)cc3)C2=O)cc1 | – | – | – | – | – | – | – | – | – | – | – | – | 1.78 µM | > 100 µM | – | – | > 100 µM | – | 2320 nM | – |
| CN1CN(C2OC(CO)C(O)C2O)c2nc(N)[nH]c(=O)c21 (configuration not stated) | – | > 100 µM | – | > 100 µM | – | > 100 µM | – | 38.5 µM | – | > 100 µM | – | – | – | > 100 µM | – | > 100 µM | > 100 µM | > 100 µM | – | – |
| CCC(=O)N1C(=O)OCC1C(C)C (configuration not stated) | – | > 100 µM | – | > 100 µM | – | > 100 µM | – | – | – | > 100 µM | – | – | – | > 100 µM | – | > 100 µM | > 100 µM | > 100 µM | – | – |
| O=C/C1=C/C2=Cc3ccccc3C=C(/C=C(/C=O)C1)C2 | – | > 100 µM | – | > 100 µM | – | > 100 µM | – | > 100 µM | – | > 100 µM | – | – | – | 90.9 µM | – | > 100 µM | > 100 µM | > 100 µM | – | – |
| N#CC(C(=O)C(=O)Nc1ccccc1)c1ccccc1 (configuration not stated) | – | > 100 µM | – | – | – | > 100 µM | – | > 100 µM | – | – | – | – | – | > 100 µM | – | > 100 µM | – | > 100 µM | – | – |
| CCN1CCC(Nc2ccnc3cc(Cl)ccc23)CC1 | 19.2 µM | 39.2 µM | 28.7 µM | > 100 µM | – | – | – | – | 16 µM | 30.2 µM | 19.7 µM | > 100 µM | 18.5 µM | > 100 µM | – | – | > 100 µM | > 100 µM | 55700 nM | 11700 nM |
| CCC[CH2][Sn]([CH2]CCC)([O]c1cccc2cccnc12)[O]c1cccc2cccnc12 | 0.193 µM | 0.421 µM | 0.382 µM | 1.17 µM | 484 nM | 1.72 µM | – | – | 0.192 µM | 0.409 µM | – | – | 0.159 µM | 0.377 µM | – | – | 0.46 µM | 2.27 µM | 229 nM | 1000 nM |
| CC(C)N1CCN(c2ccncc2S(=O)(=O)N2CCCCC2)CC1 | – | > 100 µM | – | > 100 µM | – | > 100 µM | – | > 100 µM | – | > 100 µM | – | > 100 µM | – | – | – | > 100 µM | > 100 µM | > 100 µM | – | – |
| COc1cc(OC)c(C(=O)c2cccs2)cc1N | – | > 100 µM | – | > 100 µM | – | > 100 µM | – | – | – | > 100 µM | – | – | – | > 100 µM | – | > 100 µM | > 100 µM | > 100 µM | – | – |
| C[C@]12CCC(=O)C(OC(=O)c3ccc([N+](=O)[O-])cc3)=C1CCC2=O | – | > 100 µM | – | > 100 µM | – | > 100 µM | – | > 100 µM | – | > 100 µM | – | – | – | > 100 µM | – | – | > 100 µM | > 100 µM | – | – |
| O=C1C(=O)N(c2ccc(Cl)cc2)C(=O)C(=O)C1c1nc2ccccc2o1 | – | > 100 µM | – | > 100 µM | – | > 100 µM | – | > 100 µM | – | > 100 µM | – | – | – | > 100 µM | – | > 100 µM | > 100 µM | > 100 µM | – | – |
| N#Cc1ccc(Cc2ccccn2)cc1Cl | – | > 100 µM | – | > 100 µM | – | > 100 µM | – | > 100 µM | – | > 100 µM | – | – | – | > 100 µM | – | > 100 µM | > 100 µM | > 100 µM | – | – |
| O=C(Nc1cccc2c1C(=O)c1c(NC(=O)c3ccccc3)ccc(Nc3cccc4c3C(=O)c3ccccc3C4=O)c1C2=O)c1ccccc1 | – | > 100 µM | – | > 100 µM | – | – | – | > 100 µM | – | > 100 µM | – | – | – | > 100 µM | – | > 100 µM | > 100 µM | > 100 µM | – | – |
| COc1cc(/C=C(\NC(=O)c2ccccc2)c2nc3ccc4c(c3[nH]2)C(=O)c2ccccc2C4=O)cc(OC)c1OC | – | > 100 µM | – | – | – | > 100 µM | – | > 100 µM | – | > 100 µM | – | – | – | 43 µM | – | > 100 µM | > 100 µM | > 100 µM | – | – |
| O=S(=O)(CCN1CCOCC1)Nc1cc(-c2ccc3ncnc(Nc4ccc(F)c(Cl)c4)c3c2)cnc1Cl | 0.153 µM | 1.09 µM | 1.56 µM | 19.6 µM | 674 nM | 17.7 µM | – | – | 0.313 µM | 1.58 µM | 1.09 µM | 4.82 µM | – | – | – | – | 22.5 µM | 0.515 µM | 1660 nM | 137 nM |
| COC(OC)c1cc2c(cc1C=O)OCO2 | – | > 100 µM | – | > 100 µM | – | > 100 µM | – | > 100 µM | – | > 100 µM | – | – | – | > 100 µM | – | > 100 µM | > 100 µM | > 100 µM | – | – |
| COc1ccc(/C(=N\NC(=O)NN)C(c2ccc(OC)cc2)C2(O)C(=O)Nc3c(Cl)cc(Cl)cc32)cc1 (configuration not stated) | – | > 100 µM | – | > 100 µM | – | > 100 µM | – | – | – | > 100 µM | – | – | – | > 100 µM | – | > 100 µM | > 100 µM | > 100 µM | – | – |
| CO[C@@H]1C=C[C@@]23c4cc5c(cc4CN(C[C@@H]2O)[C@H]3C1)OCO5 | – | 64.2 µM | – | > 100 µM | – | > 100 µM | – | 50.7 µM | – | – | – | – | – | 69.5 µM | – | 49.2 µM | 18.8 µM | > 100 µM | – | – |
